Holding throughout (assay): Kinase selectivity, DiscoverX scanMAX Kinase assay panel (% control)
Format in all cases: binding

The target in assay [1] is T1, kinases of the scanMAX Kinase assay panel (Homo sapiens, UniProt P07949, V804L).
T1 construct: purchased DiscoverX Co. (contract measurement) scanMAX Kinase assay panel
The settings on record: kinase RET(V804L); 1 uM in DMSO. The gist of the method:
(§1)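 Each enzyme is treated with drug at 1 uM in DMSO, then signal is scaled between a positive control (0%) and DMSO (100%) to give % control. Kinases with % control under 35% are scored as inhibited.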

Assay [2] concerns the target T2, kinases of the scanMAX Kinase assay panel (Homo sapiens, UniProt P36888, D835V).
T2 construct: purchased DiscoverX Co. (contract measurement) scanMAX Kinase assay panel
T2 sequence (P36888 27-993 D835V): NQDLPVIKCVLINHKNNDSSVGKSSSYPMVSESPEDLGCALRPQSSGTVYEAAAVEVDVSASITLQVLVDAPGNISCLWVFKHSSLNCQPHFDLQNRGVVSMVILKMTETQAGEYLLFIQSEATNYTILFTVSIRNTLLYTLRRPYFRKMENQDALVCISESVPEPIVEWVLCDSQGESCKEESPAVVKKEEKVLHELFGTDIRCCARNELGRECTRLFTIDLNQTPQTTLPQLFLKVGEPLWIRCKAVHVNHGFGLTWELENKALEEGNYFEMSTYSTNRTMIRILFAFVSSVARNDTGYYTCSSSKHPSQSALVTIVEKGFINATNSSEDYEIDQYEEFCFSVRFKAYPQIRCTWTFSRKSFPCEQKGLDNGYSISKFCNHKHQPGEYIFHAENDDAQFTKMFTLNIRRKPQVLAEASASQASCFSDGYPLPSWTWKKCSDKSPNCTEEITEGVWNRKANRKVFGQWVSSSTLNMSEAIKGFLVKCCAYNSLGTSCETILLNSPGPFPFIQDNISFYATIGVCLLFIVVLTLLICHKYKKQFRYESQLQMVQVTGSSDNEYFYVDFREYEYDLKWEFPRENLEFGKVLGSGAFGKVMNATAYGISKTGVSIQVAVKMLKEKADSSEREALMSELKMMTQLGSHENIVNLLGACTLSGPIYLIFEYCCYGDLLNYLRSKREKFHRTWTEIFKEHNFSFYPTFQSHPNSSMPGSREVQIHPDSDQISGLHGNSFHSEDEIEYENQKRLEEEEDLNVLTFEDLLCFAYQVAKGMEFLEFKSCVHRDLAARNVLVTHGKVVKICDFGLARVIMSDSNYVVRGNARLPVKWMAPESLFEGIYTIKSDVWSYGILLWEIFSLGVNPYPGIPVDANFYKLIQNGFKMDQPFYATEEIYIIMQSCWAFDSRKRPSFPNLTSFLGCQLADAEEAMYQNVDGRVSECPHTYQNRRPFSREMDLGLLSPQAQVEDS
The settings on record: FLT3(D835V); 1 uM. A digest of the protocol:
as §1

Assay [3] addresses T3, kinases of the scanMAX Kinase assay panel (Homo sapiens, UniProt P42336, H1047Y).
T3 construct: purchased DiscoverX Co. (contract measurement) scanMAX Kinase assay panel
The settings on record: PIK3CA(H1047Y); 1 uM. The gist of the method: as §1

For assay [4], the target named is T4, kinases of the scanMAX Kinase assay panel (Homo sapiens, UniProt Q13470).
T4 construct: purchased DiscoverX Co. (contract measurement) scanMAX Kinase assay panel
T4 sequence (Q13470 1-666): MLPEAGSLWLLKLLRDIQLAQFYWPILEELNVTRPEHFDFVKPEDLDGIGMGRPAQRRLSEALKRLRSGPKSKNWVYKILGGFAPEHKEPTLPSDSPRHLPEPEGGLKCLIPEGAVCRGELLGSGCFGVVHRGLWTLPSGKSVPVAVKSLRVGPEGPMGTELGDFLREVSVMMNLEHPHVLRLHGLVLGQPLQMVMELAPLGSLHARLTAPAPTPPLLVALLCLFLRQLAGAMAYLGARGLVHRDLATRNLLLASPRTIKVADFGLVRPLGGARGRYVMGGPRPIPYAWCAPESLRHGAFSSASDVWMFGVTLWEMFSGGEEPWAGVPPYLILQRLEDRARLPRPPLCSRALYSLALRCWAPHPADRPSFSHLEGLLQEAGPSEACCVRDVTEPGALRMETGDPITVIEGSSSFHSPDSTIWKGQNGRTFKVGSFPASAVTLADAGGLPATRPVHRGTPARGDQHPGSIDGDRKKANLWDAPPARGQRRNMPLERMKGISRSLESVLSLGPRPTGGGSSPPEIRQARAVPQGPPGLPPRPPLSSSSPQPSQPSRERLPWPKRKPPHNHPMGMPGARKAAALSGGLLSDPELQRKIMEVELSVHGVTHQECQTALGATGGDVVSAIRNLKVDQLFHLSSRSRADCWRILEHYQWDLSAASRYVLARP
The settings on record: kinase TNK1; 1 uM in DMSO. A digest of the protocol: as §1

Assay [5] addresses T5, kinases of the scanMAX Kinase assay panel (Homo sapiens, UniProt Q15418).
T5 construct: purchased DiscoverX Co. (contract measurement) scanMAX Kinase assay panel
The settings on record: 1 uM in DMSO. A digest of the protocol: as §1

Assay [6] deals with T6, kinases of the scanMAX Kinase assay panel (Homo sapiens, UniProt Q16620).
T6 construct: purchased DiscoverX Co. (contract measurement) scanMAX Kinase assay panel
The settings on record: kinase TRKB; 1 uM in DMSO. The gist of the method: as §1

Assay [7] addresses T7, kinases of the scanMAX Kinase assay panel (Homo sapiens, UniProt Q9NSY1).
T7 construct: purchased DiscoverX Co. (contract measurement) scanMAX Kinase assay panel
The settings on record: BIKE; 1 uM. A digest of the protocol:
as §1

[8] abbreviates: kinase RSK1(Kin.Dom.1-N-terminal), read-out: % control, RSK1(Kin.Dom.1-N-terminal).
[9] abbreviates: kinase RSK1(Kin.Dom.2-C-terminal), read-out: % control, RSK1(Kin.Dom.2-C-terminal).

Read-outs that look alike come from different tables or passages of the source.

T7 sequence (Q9NSY1 whole entry): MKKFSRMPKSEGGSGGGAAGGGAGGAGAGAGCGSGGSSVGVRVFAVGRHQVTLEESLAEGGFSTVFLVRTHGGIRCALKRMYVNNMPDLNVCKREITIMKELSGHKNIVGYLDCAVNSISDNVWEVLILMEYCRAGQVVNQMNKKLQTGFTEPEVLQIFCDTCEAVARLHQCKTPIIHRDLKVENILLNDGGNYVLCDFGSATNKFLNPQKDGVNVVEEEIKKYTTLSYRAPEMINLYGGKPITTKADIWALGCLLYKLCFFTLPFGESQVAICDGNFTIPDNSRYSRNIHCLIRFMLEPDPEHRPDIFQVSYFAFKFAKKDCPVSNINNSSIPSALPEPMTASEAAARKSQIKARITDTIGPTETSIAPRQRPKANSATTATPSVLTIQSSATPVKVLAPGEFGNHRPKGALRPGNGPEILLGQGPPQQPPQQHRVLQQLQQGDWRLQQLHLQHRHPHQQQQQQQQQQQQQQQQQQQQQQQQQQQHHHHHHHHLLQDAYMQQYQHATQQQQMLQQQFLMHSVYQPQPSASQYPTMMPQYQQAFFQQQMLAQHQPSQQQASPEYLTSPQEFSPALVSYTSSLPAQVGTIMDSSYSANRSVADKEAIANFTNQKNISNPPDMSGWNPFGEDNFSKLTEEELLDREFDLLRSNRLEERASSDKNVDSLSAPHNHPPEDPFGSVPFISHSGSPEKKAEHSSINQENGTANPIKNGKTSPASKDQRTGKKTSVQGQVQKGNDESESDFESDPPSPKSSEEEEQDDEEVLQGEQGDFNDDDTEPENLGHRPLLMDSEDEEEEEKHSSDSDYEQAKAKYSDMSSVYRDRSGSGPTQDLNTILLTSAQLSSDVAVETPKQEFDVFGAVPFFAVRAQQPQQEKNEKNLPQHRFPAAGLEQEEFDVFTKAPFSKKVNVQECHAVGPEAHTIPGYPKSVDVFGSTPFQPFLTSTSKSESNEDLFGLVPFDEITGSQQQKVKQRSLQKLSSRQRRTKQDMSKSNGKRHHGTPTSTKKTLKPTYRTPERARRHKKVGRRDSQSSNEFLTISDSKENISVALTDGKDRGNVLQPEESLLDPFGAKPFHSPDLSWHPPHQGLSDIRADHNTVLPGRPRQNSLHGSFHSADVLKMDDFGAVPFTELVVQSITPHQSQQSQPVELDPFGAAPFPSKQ
T1 sequence (P07949 29-1114 V804L): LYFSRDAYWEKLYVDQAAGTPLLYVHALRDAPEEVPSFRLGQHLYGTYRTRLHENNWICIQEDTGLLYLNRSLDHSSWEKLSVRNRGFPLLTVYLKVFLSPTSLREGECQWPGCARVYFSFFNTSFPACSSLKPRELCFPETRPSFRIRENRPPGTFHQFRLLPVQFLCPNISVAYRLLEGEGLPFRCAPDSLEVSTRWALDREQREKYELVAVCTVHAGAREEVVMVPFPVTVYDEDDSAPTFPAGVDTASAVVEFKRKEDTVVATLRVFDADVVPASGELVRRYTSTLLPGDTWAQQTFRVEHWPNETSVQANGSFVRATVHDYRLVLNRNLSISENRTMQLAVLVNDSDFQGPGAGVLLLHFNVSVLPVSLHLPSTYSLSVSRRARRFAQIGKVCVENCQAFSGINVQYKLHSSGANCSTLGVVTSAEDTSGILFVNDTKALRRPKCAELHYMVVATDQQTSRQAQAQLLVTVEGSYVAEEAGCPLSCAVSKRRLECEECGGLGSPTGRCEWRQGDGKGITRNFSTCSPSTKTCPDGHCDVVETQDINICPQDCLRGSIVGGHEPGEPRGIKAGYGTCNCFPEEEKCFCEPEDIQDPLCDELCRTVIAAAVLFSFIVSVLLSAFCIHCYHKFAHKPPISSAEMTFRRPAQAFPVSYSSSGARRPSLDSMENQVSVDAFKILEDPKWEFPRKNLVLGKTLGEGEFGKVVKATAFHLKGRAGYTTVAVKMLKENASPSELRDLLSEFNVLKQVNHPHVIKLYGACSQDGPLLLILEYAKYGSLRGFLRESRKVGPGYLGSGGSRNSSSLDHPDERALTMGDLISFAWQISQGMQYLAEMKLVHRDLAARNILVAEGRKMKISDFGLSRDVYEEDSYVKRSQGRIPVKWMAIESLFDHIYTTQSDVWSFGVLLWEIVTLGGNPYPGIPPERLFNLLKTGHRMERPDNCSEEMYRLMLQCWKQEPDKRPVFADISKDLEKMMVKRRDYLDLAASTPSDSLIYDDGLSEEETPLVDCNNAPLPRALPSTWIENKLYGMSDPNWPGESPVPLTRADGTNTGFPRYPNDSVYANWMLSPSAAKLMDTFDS
T6 sequence (Q16620 32-822): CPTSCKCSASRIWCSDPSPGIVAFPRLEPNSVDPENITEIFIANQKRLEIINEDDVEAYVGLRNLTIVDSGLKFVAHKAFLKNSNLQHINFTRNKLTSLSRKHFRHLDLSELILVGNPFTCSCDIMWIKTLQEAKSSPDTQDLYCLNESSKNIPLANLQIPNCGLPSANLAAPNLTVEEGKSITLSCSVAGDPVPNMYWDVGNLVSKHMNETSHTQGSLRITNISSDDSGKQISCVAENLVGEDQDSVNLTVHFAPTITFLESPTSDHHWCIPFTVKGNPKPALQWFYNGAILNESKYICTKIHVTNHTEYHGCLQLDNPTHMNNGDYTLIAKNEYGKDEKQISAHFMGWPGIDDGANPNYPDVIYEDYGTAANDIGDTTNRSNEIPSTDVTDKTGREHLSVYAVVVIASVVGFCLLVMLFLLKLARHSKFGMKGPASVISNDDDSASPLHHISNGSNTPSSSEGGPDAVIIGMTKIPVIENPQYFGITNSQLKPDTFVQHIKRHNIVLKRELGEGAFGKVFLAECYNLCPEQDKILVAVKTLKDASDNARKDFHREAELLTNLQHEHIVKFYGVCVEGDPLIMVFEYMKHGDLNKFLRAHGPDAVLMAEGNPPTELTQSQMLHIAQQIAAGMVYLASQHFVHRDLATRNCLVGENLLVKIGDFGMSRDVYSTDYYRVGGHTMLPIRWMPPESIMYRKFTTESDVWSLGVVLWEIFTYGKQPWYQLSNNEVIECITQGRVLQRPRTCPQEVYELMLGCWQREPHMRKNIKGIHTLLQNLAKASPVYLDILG
T5 sequence (Q15418 whole entry): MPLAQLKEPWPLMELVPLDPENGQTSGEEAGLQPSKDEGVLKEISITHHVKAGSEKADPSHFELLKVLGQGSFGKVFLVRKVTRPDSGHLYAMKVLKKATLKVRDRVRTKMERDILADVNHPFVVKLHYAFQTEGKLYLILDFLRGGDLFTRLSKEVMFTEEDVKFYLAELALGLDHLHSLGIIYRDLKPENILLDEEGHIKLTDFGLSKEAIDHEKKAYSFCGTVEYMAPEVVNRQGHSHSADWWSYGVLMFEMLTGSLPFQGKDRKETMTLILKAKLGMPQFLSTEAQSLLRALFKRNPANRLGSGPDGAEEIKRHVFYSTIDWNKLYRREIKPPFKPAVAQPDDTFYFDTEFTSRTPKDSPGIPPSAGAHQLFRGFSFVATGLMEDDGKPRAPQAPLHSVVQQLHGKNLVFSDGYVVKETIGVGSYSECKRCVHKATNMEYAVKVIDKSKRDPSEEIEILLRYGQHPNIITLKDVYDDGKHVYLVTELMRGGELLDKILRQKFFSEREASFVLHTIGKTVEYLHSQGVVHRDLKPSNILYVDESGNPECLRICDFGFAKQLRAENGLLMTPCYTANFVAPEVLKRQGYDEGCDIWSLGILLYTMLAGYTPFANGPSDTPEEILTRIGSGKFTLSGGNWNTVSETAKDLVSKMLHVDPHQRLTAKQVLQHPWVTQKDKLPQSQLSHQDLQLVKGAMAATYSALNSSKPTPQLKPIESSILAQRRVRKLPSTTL
T3 sequence (P42336 whole entry H1047Y): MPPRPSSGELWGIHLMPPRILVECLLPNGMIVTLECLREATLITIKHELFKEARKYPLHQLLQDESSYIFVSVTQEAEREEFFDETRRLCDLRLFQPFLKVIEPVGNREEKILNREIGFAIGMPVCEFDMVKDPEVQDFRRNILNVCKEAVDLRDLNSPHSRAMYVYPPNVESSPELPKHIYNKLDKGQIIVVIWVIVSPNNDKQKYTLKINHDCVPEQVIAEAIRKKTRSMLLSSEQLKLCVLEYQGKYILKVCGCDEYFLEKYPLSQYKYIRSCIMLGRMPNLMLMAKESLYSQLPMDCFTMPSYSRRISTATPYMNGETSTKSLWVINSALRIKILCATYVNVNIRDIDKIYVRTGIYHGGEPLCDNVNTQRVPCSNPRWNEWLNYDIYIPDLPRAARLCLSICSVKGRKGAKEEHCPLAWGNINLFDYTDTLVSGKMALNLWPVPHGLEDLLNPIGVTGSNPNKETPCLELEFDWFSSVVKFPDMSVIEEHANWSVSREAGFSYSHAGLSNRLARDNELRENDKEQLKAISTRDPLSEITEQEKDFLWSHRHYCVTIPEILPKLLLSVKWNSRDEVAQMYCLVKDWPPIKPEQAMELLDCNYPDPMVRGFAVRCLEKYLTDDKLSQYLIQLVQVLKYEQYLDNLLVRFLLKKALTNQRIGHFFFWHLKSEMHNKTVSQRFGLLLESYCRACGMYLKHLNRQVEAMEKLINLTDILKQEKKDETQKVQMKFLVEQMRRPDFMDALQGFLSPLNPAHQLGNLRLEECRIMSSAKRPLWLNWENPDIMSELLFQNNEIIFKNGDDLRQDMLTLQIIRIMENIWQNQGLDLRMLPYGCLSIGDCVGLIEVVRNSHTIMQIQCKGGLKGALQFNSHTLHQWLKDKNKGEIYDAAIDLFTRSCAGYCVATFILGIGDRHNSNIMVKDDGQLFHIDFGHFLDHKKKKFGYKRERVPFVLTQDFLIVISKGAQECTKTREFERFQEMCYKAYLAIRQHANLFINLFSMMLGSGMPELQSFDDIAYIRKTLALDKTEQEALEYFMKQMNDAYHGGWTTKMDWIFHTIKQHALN

In the case of `CNc1nc(Nc2ccc(C(=O)N3CCOCC3)cc2OC)nc2[nH]cc(C#N)c12` [Example 1, 2-((2-methoxy-4-(morpholine-4-carbonyl)phenyl)amino)-4-(methylamino)-7H-pyrrolo[2,3-d]pyrimidine-5-carbonitrile], the remaining binding at 1 µM in assay [1] was found to be 79%; in assay [2], 58%; in assay [3], 100%; in assay [4], 85%; in assay [5] (setting [8]), 98%; in assay [5] (setting [9]), 59%. In addition, the remaining binding at 1 µM in assay [6] came out at 61%; in assay [7] it was 62%.

In the case of `CC1(Nc2nc(Nc3cnn([C@H]4CCN(C5COC5)C[C@@H]4F)c3Cl)nc3[nH]cc(C#N)c23)CC1` [Example 52, 2-((5-chloro-1-((3S,4S)-3-fluoro-1-(oxetane-3-yl)piperidine-4-yl)-1H-pyrazole-4-yl)amino)((1-methylcyclopropyl)amino)-7H-pyrrolo[2,3-d]pyrimidine-5-carbonitrile], the remaining binding at 1 µM in assay [1] came to 0%; in assay [2] it was 0%; in assay [3], 62%; in assay [4], 18%; in assay [5] (setting [8]), 2.4%; in assay [5] (setting [9]), 52%. Moreover, the remaining binding at 1 µM in assay [6] came to 7.5%; in assay [7], 0%.

Turning to `CCNc1nc(Nc2ccc(C(=O)N3CCC(N4CCOCC4)CC3)cc2OC)nc2[nH]cc(C(F)(F)F)c12` [Example 104, (4-((4-(ethylamino)-5-(trifluoromethyl)-7H-pyrrolo[2,3-d]pyrimidine-2-yl)amino)-3-methoxyphenyl)(4-morpholinopiperidine-1-yl)methanone], the remaining binding at 1 µM in assay [1] came out at 89%; in assay [2], 0%; in assay [3], 96%; in assay [4], 16%; in assay [5] (setting [8]), 89%; in assay [5] (setting [9]) it was 61%. In addition, the remaining binding at 1 µM in assay [6] and in assay [7] was 100% in each case.

The values above are taken from patent publication US11208412B2 (DAEGU-GYEONGBUK MEDICAL INNOVATION FOUNDATION, priority 2017, dated 2021).
